Experimental data as given in ChEMBL document CHEMBL3507680, “University of Dundee, Gates Library screen for HepG2 cell viability”.

Assay: Human HepG2 cell viability assay in 384 well format
Format: toxicity, cell-based
Design: dose 125 nL, time 70.5 hour; cytotoxicity at 70.5 h: concentration not given beside the values
Details: HepG2 cells, read-out: Inhibition
Molecule `Cc1cccc(N(C)Cc2nc3c(cnn3C)c(=O)[nH]2)c1C` has a cytotoxicity at 70.5 h of -10%.
`CC(C)(C(=O)NCC1CCN(Cc2cccnc2)C1)c1ccccc1` (stereo not drawn) showed a cytotoxicity at 70.5 h of -4.33%.
For `Cc1ccc(NC2CCN(C(=O)Cc3cccc(F)c3)CC2)nn1`, the cytotoxicity at 70.5 h was -4.83%.
In the case of `COc1c(CNC(C)C(=O)NC2CCCC2)c(C(C)C)nn1C` (stereo not drawn), the cytotoxicity at 70.5 h is reported as -6.92%.
For `NCCO[C@H]1C[C@@H](O)C12CCN(C(=O)COc1cccc(Cl)c1)CC2`, the cytotoxicity at 70.5 h was -5.89%.
Work on `COc1c(Cl)cccc1NCc1csc(C)n1` yielded a cytotoxicity at 70.5 h of -8.65%.
`Cc1cccc(NC(=O)CN(C)C(=O)c2ccc(-n3cccc3)nc2)n1` showed a cytotoxicity at 70.5 h of -4.2%.
Molecule `Cc1cc(S(=O)(=O)N2CCCc3ccc(F)cc32)sc1C(=O)O` has a cytotoxicity at 70.5 h of -2.82%.
In the case of `CCn1ncnc1C(C)Nc1cc(C2CC2)ncn1` (stereo not drawn), the cytotoxicity at 70.5 h is reported as -13%.
With `O=c1c2ccccc2ncn1Cc1cc(C2CC2)[nH]n1` the cytotoxicity at 70.5 h was 13.8%.
With `Cc1noc(NCc2ccc(F)cc2)n1` the cytotoxicity at 70.5 h was -1.48%.
Work on `Fc1ccc(Oc2nccnc2C2CCN(C3CCOCC3)CC2)cc1` yielded a cytotoxicity at 70.5 h of -3.07%.
For `c1ccc(O[C@H]2COCCN(Cc3cccc4c3OCO4)C2)cc1`, the cytotoxicity at 70.5 h was -1.37%.
Work on `Cc1cnn(CC2CN(Cc3nc(-c4ccoc4)no3)CCO2)c1` (stereo not drawn) yielded a cytotoxicity at 70.5 h of -18.2%.
`CN(C)c1ccc(CN2CCN(c3ccc(C#N)cc3)C(=O)C2)cn1` gave a cytotoxicity at 70.5 h of -7.99%.
For `CN(C)C(=O)CN1CCC(c2nnc(Cn3cccn3)n2C2CC2)CC1`, the cytotoxicity at 70.5 h was -12%.
Molecule `CN(C)c1cc(C2CCCN(S(=O)(=O)c3cn(C)cn3)C2)ccn1` (stereo not drawn) has a cytotoxicity at 70.5 h of -4.64%.
With `Cc1nc2sccn2c1CNc1ccc(C(=O)O)cc1` the cytotoxicity at 70.5 h was -7.07%.
For `COCc1noc(-c2ccc(N3CCCCC3CO)nc2)n1` (stereo not drawn), the cytotoxicity at 70.5 h was -6.84%.
For `Cc1nc(CN2CCC23CCN(Cc2ccco2)CC3)cs1`, the cytotoxicity at 70.5 h was -5.68%.
`Cc1nc(OCC(=O)N2CCCC2)cc(-n2cccn2)n1` showed a cytotoxicity at 70.5 h of -7.15%.
`O=C(c1nc2c(o1)CN(CC1CC1)C2)N1CCCC1` showed a cytotoxicity at 70.5 h of -13.1%.
Work on `COC(=O)c1cc(OCC2CCC2)cc(C(=O)N[C@@H]2CNCC[C@H]2O)c1` yielded a cytotoxicity at 70.5 h of 19.4%.
Molecule `Fc1cccc(F)c1Cn1c(C2CCNCC2)cc2cccnc21` has a cytotoxicity at 70.5 h of 3.7%.
For `Cn1ccnc1CNCCNc1ncc(Cl)cc1Cl`, the cytotoxicity at 70.5 h was -5.95%.
With `Cc1ccc2cnn(CCC(=O)Nc3nc(C)c(C)s3)c2c1` the cytotoxicity at 70.5 h was 4.56%.
`Cc1ccccc1C(=O)N1CC[C@@H]2CN(c3ncccn3)CCO[C@@H]2C1` showed a cytotoxicity at 70.5 h of -10.9%.
Work on `O=C(NCc1ccc(CO)cc1)C1CCOc2ccccc2C1` (stereo not drawn) yielded a cytotoxicity at 70.5 h of 4.54%.
With `CC1c2ncc(CN3CCN(C)CC3)n2CCN1Cc1ccc(F)cc1` (stereo not drawn) the cytotoxicity at 70.5 h was -2.82%.
In the case of `O=C(c1ccnnc1)N1C[C@H]2CCC[C@@]2(COCc2ccccn2)C1`, the cytotoxicity at 70.5 h is reported as -3.81%.
Molecule `CS(=O)(=O)NCC1CCCN(C(=O)COCC2CC2)C1` (stereo not drawn) has a cytotoxicity at 70.5 h of -22.4%.
In the case of `CC(=O)NC(C)CC(=O)NCc1cccnc1Oc1ccccc1C` (stereo not drawn), the cytotoxicity at 70.5 h is reported as -6.45%.
With `O=C(NC1CCCC1)NC1CCC(C(=O)N2CCSCC2)CC1` (stereo not drawn) the cytotoxicity at 70.5 h was -9.08%.
`CN1C[C@H]2C[C@H](C(=O)Nc3cccnc3)[C@@H](C1)O2` showed a cytotoxicity at 70.5 h of -11.1%.
With `O=C(Cc1cccc(F)c1F)NC1COc2ccccc2C1=O` (stereo not drawn) the cytotoxicity at 70.5 h was -10.6%.
Molecule `CC(=O)N1CCN(CCCOc2ccccc2F)CC(C(N)=O)C1` (stereo not drawn) has a cytotoxicity at 70.5 h of -13.8%.
Molecule `O=C(Cc1ccc2c(c1)OCO2)N1CCN(c2ccncc2)CC1` has a cytotoxicity at 70.5 h of -9.91%.
`O=C(NCCCO)c1nnsc1-c1ccccc1` gave a cytotoxicity at 70.5 h of -0.82%.
For `Cc1cccc(N2CCC3(CCN(C(=O)c4cccnc4)CC3)C2)n1`, the cytotoxicity at 70.5 h was 14%.
For `O=C(NCC1CCC2(CCNCC2)CO1)c1cnccn1` (stereo not drawn), the cytotoxicity at 70.5 h was 9.23%.
Work on `CCCNC(=O)C1CCN(CC2(O)CCC(C)CC2)CC1` (stereo not drawn) yielded a cytotoxicity at 70.5 h of -3.07%.
Work on `CN1CCN(C2CCN(Cc3ccc(Cl)cc3)CC2)C1=O` yielded a cytotoxicity at 70.5 h of -2.16%.
Molecule `CCOCC(=O)N1C[C@@H](O)[C@H](N(C)Cc2ccc(OC)cc2)C1` has a cytotoxicity at 70.5 h of -13.7%.
With `Cc1cccc(CN2C[C@@H]3CN(C(=O)c4cnccn4)C[C@@H]3C2=O)n1` the cytotoxicity at 70.5 h was -0.986%.
In the case of `Cc1nnc(NC(=O)NCC(C)N2CCOCC2)s1` (stereo not drawn), the cytotoxicity at 70.5 h is reported as -11%.
`Cc1nsc(NC(=O)N2CCN(Cc3ccc(F)cc3)C(=O)C2)n1` showed a cytotoxicity at 70.5 h of -13.5%.
Molecule `CCn1nc(C)c2nc(C)nc(NCCCn3cccn3)c21` has a cytotoxicity at 70.5 h of -7.44%.
For `CC(CN1CCOCC1)NC(=O)N1CCN(S(C)(=O)=O)CC1` (stereo not drawn), the cytotoxicity at 70.5 h was 27.9%.
In the case of `CSCC(=O)N1CCc2c(cnc(C)c2-c2noc(-c3ccco3)n2)C1`, the cytotoxicity at 70.5 h is reported as -17%.
Work on `Cc1csc(C(C#N)C(=O)NCc2ccccc2)n1` (stereo not drawn) yielded a cytotoxicity at 70.5 h of -6.71%.
In the case of `Cc1ccc(N2CCC(C(O)Cc3ccccc3)CC2)nn1` (stereo not drawn), the cytotoxicity at 70.5 h is reported as 1.34%.
Work on `CCc1ncnc2c1CCN(C(=O)c1ccccn1)CC2` yielded a cytotoxicity at 70.5 h of -24.1%.
`Cc1cc(CNc2cc(Cl)ccc2C)no1` showed a cytotoxicity at 70.5 h of -11.6%.
Work on `Cc1nsc(NC(=O)NC2(CN3CCOCC3)CCCC2)n1` yielded a cytotoxicity at 70.5 h of -8.03%.
With `Cc1cccc2c1nc1n2[C@@H](CNC2CCCCC2)COC1` the cytotoxicity at 70.5 h was 8.3%.
With `COc1ccccc1C1(CNc2snc(Cl)c2C#N)CCOCC1` the cytotoxicity at 70.5 h was -4.49%.
Work on `Cc1n[nH]c(C)c1NC(=O)CN1CCOC(Cn2cccn2)C1` (stereo not drawn) yielded a cytotoxicity at 70.5 h of 0.504%.
Molecule `Cc1noc(C2CCN(C(C)c3nc(C(C)(C)C)no3)CC2)n1` (stereo not drawn) has a cytotoxicity at 70.5 h of -14.9%.
For `Nc1cc(N2CCCC(Cc3ccc(F)cc3F)(C(=O)O)C2)ncn1` (stereo not drawn), the cytotoxicity at 70.5 h was -5.98%.
`CCn1c(C2CCCN(Cc3cc(C)cc(C)c3)C2)nn(C)c1=O` (stereo not drawn) showed a cytotoxicity at 70.5 h of 3.73%.
Work on `CCSC(C)C(=O)N1CCC(c2nn(C)c(=O)n2-c2ccccc2)CC1` (stereo not drawn) yielded a cytotoxicity at 70.5 h of -7.97%.
`CCNC(=O)CN1CCN(Cc2nc3c(F)cccc3n2CC)CC1` gave a cytotoxicity at 70.5 h of 0.0175%.
`CN(Cc1nnc(C2CC2)n1C)C1CCN(Cc2ccccc2)C1` (stereo not drawn) gave a cytotoxicity at 70.5 h of 17.5%.
Work on `Cc1nnc(N2CC[C@@H](OCC3CC3)[C@@H](Cc3ccccc3)C2)s1` yielded a cytotoxicity at 70.5 h of -7.86%.
Molecule `CN(C)c1ccc(-c2ccnc3c2ccn3C)nn1` has a cytotoxicity at 70.5 h of 18.4%.
`O=C(Cn1ncc(N2CCNCC2)cc1=O)NCCc1ccc(F)cc1` gave a cytotoxicity at 70.5 h of -3.8%.
`Cc1cc(C)n(-c2ccc(CNCc3ccc(OC(C)C)cc3)cn2)n1` showed a cytotoxicity at 70.5 h of -0.102%.
For `O=C1CN(Cc2nnc(-c3ccc(Br)cc3)o2)CCN1`, the cytotoxicity at 70.5 h was 4.44%.
Work on `CO[C@@H]1CO[C@@]2(CCCN(Cc3nc(C)cs3)C2)C1` yielded a cytotoxicity at 70.5 h of -1.7%.
With `Cn1cc(NC(=O)Cc2cccs2)c(=O)n(C)c1=O` the cytotoxicity at 70.5 h was -9.77%.
With `CC(C)NC(=O)N1CCc2c(CNc3ncccn3)cncc2C1` the cytotoxicity at 70.5 h was -3.35%.
For `Cn1cnnc1S(=O)(=O)C1CCN(S(=O)(=O)c2ccc(Cl)s2)CC1`, the cytotoxicity at 70.5 h was 11.9%.
`Cc1[nH]c2ccc(CNC3CCN(Cc4ccccn4)CC3)cc2c1C` gave a cytotoxicity at 70.5 h of 3.44%.
Work on `Cc1noc(C)c1CNC(=O)c1ccc(NC2CC2)nc1` yielded a cytotoxicity at 70.5 h of 5.69%.
With `Cc1cc(Br)cnc1NCCN1CCC(N(C)C)CC1` the cytotoxicity at 70.5 h was -4.2%.
Work on `CC(CC(=O)Nc1ccc(C(=O)N(C)C)c(Cl)c1)n1cccc1` (stereo not drawn) yielded a cytotoxicity at 70.5 h of 7.79%.
With `Fc1cccc(-c2n[nH]cc2-c2nc(CN3CCOCC3)no2)c1` the cytotoxicity at 70.5 h was 15.5%.
Work on `O=C(c1cc(Br)ccc1-n1cnnn1)N1CCCC1` yielded a cytotoxicity at 70.5 h of -3.68%.
`NC(=O)CN(CC(=O)NCCc1c(F)cccc1F)C1CCCC1` gave a cytotoxicity at 70.5 h of 23.5%.
`CC(C)c1nnc2n1CC(CNCc1ccncc1)CC2` (stereo not drawn) showed a cytotoxicity at 70.5 h of -3.85%.
In the case of `CCOc1ccc(C#N)cc1NCc1cc(C)on1`, the cytotoxicity at 70.5 h is reported as 27.9%.
For `CCOCCCNC(=O)c1cccn1Cc1cccnc1`, the cytotoxicity at 70.5 h was -4.46%.
For `CCOC(=O)N1CCN(CC(=O)Nc2nnc(CC)s2)CC1`, the cytotoxicity at 70.5 h was -4.24%.
